This note sets out measurements from ChEMBL document CHEMBL3098090, “Cytotoxic activity of gypenosides and gynogenin against non-small cell lung carcinoma A549 cells” (Bioorg Med Chem Lett, 2014).

This assay relates to A549. Briefly: Cytotoxicity against human A549 cells after 48 hrs by MTT assay. Type of assay: functional, cell-based. The conditions noted are these: A549, 48 h. Background: Tetrazolium dyes change colour on reduction, which living cells bring about.

≈ marks a conversion by molar mass, not a printed value.

Broadly, the IC50 is the concentration that gives 50% inhibition. Read a high IC50 as weaker potency in that assay. In the case of `CC(C)=CCC[C@](C)(O[C@@H]1O[C@H](CO)[C@@H](O)[C@H](O)[C@H]1O)[C@H]1CC[C@]2(C)[C@@H]1[C@H](O)C[C@@H]1[C@@]3(C)C[C@@H](O)[C@H](O[C@@H]4O[C@H](CO)[C@@H](O)[C@H](O)[C@H]4O[C@@H]4O[C@H](CO)[C@@H](O)[C@H](O)[C@H]4O)C(C)(C)[C@@H]3CC[C@]12C`, 52.6 µg/mL (≈ 54.6 µM) corresponded to half-maximal inhibition (IC50). Molecule `CC(C)=CCC[C@](C)(O)[C@H]1CC[C@]2(C)[C@@H]1[C@H](O)C[C@@H]1[C@@]3(C)CC[C@H](O[C@@H]4O[C@H](CO)[C@@H](O)[C@H](O)[C@H]4O[C@@H]4O[C@H](CO)[C@@H](O)[C@H](O)[C@H]4O)C(C)(C)[C@@H]3CC[C@]12C` gave an IC50 of 55.4 µg/mL (≈ 70.5 µM).

As for `CC(C)=CCC[C@@](C)(O)[C@H]1CC[C@]2(C)[C@@H]1[C@H](O)C[C@@H]1[C@@]3(C)C[C@@H](O)[C@H](O[C@@H]4O[C@H](CO)[C@@H](O)[C@H](O)[C@H]4O[C@@H]4O[C@H](CO)[C@@H](O)[C@H](O)[C@H]4O)C(C)(C)[C@@H]3CC[C@]12C`, the midpoint of inhibition, the IC50, lay at 51 µg/mL (≈ 63.6 µM). `CC(C)=CCC[C@](C)(O)[C@H]1CC[C@]2(C)[C@@H]1[C@H](O)C[C@@H]1[C@@]3(C)C[C@@H](O)[C@H](O)C(C)(C)[C@@H]3CC[C@]12C` displayed an IC50 of 12.5 µg/mL (≈ 26.3 µM). Then `CC(C)=CCC[C@](C)(O[C@@H]1O[C@H](CO[C@@H]2OC[C@@H](O)[C@H](O)[C@H]2O)[C@@H](O)[C@H](O)[C@H]1O)[C@H]1CC[C@]2(C)[C@@H]1[C@H](O)C[C@@H]1[C@@]3(C)C[C@@H](O)[C@H](O[C@@H]4O[C@H](CO)[C@@H](O)[C@H](O)[C@H]4O[C@@H]4O[C@H](CO)[C@@H](O)[C@H](O)[C@H]4O)C(C)(C)[C@@H]3CC[C@]12C`, with 106 µg/mL (≈ 96.7 µM); and `CC(C)=CCC[C@](C)(O)[C@H]1CC[C@]2(C)[C@@H]1[C@H](O)C[C@@H]1[C@@]3(C)C[C@@H](O)[C@H](O[C@@H]4O[C@H](CO)[C@@H](O)[C@H](O)[C@H]4O[C@@H]4O[C@H](CO)[C@@H](O)[C@H](O)[C@H]4O)C(C)(C)[C@@H]3CC[C@]12C`, with 34.9 µg/mL (≈ 43.6 µM).
